# Read-outs that look alike come from different tables or passages of the source.
# What was measured:
# [1] = Human taste test, cooling intensity; assay type: in vivo; conditions: five human panelists, two trials, Tukey's HSD 5% risk level
# Description: In this experiment the cooling effect of a putative coolant, SID 391254, identified using the subject assays was analyzed in human taste tests. Particularly, the cooling intensity for three test samples was tested in five human volunteer panelists in two trials. […] The tests were conducted in booths with the data recorded using Compusense software. Additionally, these experiments further included the administration of WS-3, a known coolant (positive control).
# For both samples containing the known or the putative cooling compound (WS-3 and SID 391254 respectively), these compounds were contained in low sodium buffer (LSB) and 0.1% ethanol.
# This experiment compared the cooling effect of another putative coolant compound (SID 10135651) identified using the described assays. […] As with the prior example, significant differences between the known and putative coolant compound vis-à-vis the control were calculated using Tukey's HSD (5% risk level). […] These tests were again conducted in booths with the data recorded using Compusense software.
# The coolant effect of another putative cooling compound (SID 7292725) identified using the subject screening assays was tested in human taste tests. Again cooling intensity scores were determined based on results in 5 human taste panelists in two trials. Significant differences were again calculated using Tukey's HSD (5% risk level).
# rat TRPM8 [2] = target: T1, rat TRPM8 (Rattus norvegicus, UniProt Q8R455); test: Voltage clamp electrophysiology in Xenopus oocytes expressing rat TRPM8 (OpusXpress); assay type: cell-based; conditions: for peak agonist-induced currents: 4-6 independent oocytes; for peak agonist-induced currents / desensitization of agonist-induced currents: one day post-injection; for desensitization of agonist-induced currents: continued presence of agonist; for specific activation of rat TRPM8 expressed in oocytes: no responses in uninjected control oocytes
# T1 construct: In the assays exemplified herein, cells which express the full-length TRPM8 polypeptide are used in high throughput assays; expressed in transfected cells; host or cells: Xenopus oocytes microinjected with rat TRPM8 cRNA
# T1 sequence (Q8R455 whole entry): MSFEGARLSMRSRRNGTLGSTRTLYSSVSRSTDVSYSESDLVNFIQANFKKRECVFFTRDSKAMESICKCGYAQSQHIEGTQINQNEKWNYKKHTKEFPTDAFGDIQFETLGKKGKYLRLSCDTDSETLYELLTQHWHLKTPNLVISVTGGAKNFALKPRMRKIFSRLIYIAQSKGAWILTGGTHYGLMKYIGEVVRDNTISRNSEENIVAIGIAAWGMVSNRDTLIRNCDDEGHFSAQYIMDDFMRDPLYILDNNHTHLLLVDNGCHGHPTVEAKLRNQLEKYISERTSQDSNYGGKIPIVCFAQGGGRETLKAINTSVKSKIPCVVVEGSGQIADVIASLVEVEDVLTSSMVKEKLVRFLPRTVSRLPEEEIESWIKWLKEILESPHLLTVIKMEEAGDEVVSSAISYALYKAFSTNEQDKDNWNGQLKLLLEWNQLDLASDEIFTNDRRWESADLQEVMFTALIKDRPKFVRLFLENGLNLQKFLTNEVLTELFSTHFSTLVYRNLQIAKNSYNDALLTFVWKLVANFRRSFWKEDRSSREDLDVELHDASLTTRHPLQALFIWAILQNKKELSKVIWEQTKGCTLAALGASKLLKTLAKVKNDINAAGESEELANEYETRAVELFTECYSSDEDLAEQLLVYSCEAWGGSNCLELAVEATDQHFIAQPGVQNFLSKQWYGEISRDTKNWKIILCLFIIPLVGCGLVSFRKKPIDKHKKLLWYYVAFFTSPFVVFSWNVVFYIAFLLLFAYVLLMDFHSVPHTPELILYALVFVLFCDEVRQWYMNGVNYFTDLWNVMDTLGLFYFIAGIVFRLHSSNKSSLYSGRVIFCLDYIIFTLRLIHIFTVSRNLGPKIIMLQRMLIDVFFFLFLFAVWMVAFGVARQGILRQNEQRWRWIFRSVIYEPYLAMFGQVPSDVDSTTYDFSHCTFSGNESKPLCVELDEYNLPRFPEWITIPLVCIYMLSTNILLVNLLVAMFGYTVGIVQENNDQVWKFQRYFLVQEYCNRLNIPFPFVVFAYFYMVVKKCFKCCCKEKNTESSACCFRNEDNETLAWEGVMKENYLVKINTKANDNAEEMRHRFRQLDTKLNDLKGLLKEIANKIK
# Description: Xenopus oocytes are microinjected with a TRPM8 nucleic acid sequence according to the invention.
# The microinjected oocytes are voltage-clamped at around 60 mV using the OpusXpress 600A one day post-injection and treated with either buffer (control) or a potential or known TRPM8 modulator contained in same buffer at a fixed concentration or over a range of different concentrations (dose-escalation).
# The current is measured for said buffer-treated or putative TRPM8 modulator-treated oocytes over a specific time period. Additionally, the current response is measured for oocytes treated with the same buffer which are not injected with a TRPM8 nucleic acid sequence (negative control).
# The current response for said oocytes is compared in order to determine the effect (if any) of said potential TRPM8 modulator compound on TRPM8 activity and whether said effect is dose-specific.
# In this experiment an electrophysiological assay was conducted using oocytes that express rat TRPM8. Specifically, oocytes were microinjected with 10 ng rat TRPM8 cRNA and were voltage-clamped at ˜60 mV using the OpusXpress 600A one day post-injection and treated with buffer and menthol (left traces) or icilin (right traces).
# Oocytes were microinjected with 10 ng rat TRPM8 […] and voltage-clamped at ˜60 mV using the OpusXpress 6000A one day post-injection and then treated with the compounds shown in the FIG. 6. In the Figure, peak agonist-induced currents are summarized for 4-6 independent oocytes.
# In these experiments, oocytes were again injected with 2 ng rat TRPM8 cRNA (as shown in left panel of FIG. 7) or uninjected (right panel) and currents were measured from ˜80 mV to 100 mV (in 20 mV increments) in the presence of buffer (control; green curves) or 100 μM menthol (red curves) four days post-injection. The blue curves in FIG. 7 depict menthol-specific currents obtained by subtracting control (green) from menthol (red) curves.
# In this experiment, oocytes were again microinjected with 10 ng rat TRPM8 cRNA, voltage-clamped at ˜60 mV and currents measured 2-3 days post-injection.
# rat TRPM8 [3] = target: T1, rat TRPM8; test: Fluorimetric calcium imaging (FLIPR), HEK293 cells transiently transfected with rat TRPM8; assay type: cell-based; conditions: chilled stimulus compared with warmer stimulus
# Description: HEK-293 cells (about 50-70% confluency) contained in 10 cm dishes are transfected with 5 μg of TRPM8 DNA and pcDNA3 and 2 μg of RFP plasmids using TransH293.
# After 24 hours, the cells are split into 384-well plates at ˜50,000 cells/well.
# At 48 hours post-transfection the cells are loaded with 4 μM Fluo-3-AM 3 AM in HBSS for 30 minutes at 37° C.
# The cells are then washed twice within HBSS containing 2.5 mM Probenicid and returned to 37° C. for 15 minutes.
# Compound plates are prepared in HBSS at twice the final concentration and kept at 37° C. to insure that rTRPM8 is not activated by a decrease in ambient temperature during stimulation (TRPM8 is activated by temperatures<22° C.).
# HEK293 cells are transfected with a plasmid encoding the rat TRPM8 cDNA (in pcDNA3.1) and are seeded into 384-well plates. 48 hours later, cells are loaded with Fluo-3-AM. Cells are then stimulated with various stimuli as shown in FIG. 2 and fluorescence intensity in each well measured using a Fluorimetric Imaging Plate Reader (FLIPR). […]
# HEK293 cells transfected with a plasmid encoding rat TRPM8 cDNA contained in pcDNA3.1 were seeded into 384-well plates. […] Cells were then stimulated with the stimuli shown in FIG. 3 and fluorescence intensity in each well measured using a Fluorimetric Imaging Plate Reader (FLIPR). […]
# rat TRPM8 [4] = target: T1, rat TRPM8; conditions: 22-24° C., McKemy et al. Nature 416:52-58 (2002); read-out: reported EC50 in oocytes; cited from earlier work
peak agonist-induced currents (rat TRPM8 [2]),SMILES,cooling intensity compared with negative control (LSB and 0.1% ethanol) [1],potency of chilled versus warmer agent at activating TRPM8 (rat TRPM8 [3]),desensitization of agonist-induced currents (rat TRPM8 [2]),specific activation of rat TRPM8 expressed in oocytes (rat TRPM8 [2]),"current/voltage (I/V) curve of menthol-specific currents (rat TRPM8 [2]; 100 μM menthol, 2 ng cRNA, four days post-injection)","EC50 (rat TRPM8 [2]; oocytes, 10 ng rat TRPM8 cRNA, 19.5° C.)",EC50 (rat TRPM8 [4])
large peak currents,O=C1NC(c2cccc([N+](=O)[O-])c2)=CCN1c1ccccc1O [icilin],–,more potent,completely desensitize,specifically activate,–,–,–
small peak currents,C [methane],–,–,–,–,–,–,–

# The remaining lines, values behind:
SMILES,peak agonist-induced currents (rat TRPM8 [2]),cooling intensity compared with negative control (LSB and 0.1% ethanol) [1],potency of chilled versus warmer agent at activating TRPM8 (rat TRPM8 [3]),desensitization of agonist-induced currents (rat TRPM8 [2]),specific activation of rat TRPM8 expressed in oocytes (rat TRPM8 [2]),"current/voltage (I/V) curve of menthol-specific currents (rat TRPM8 [2]; 100 μM menthol, 2 ng cRNA, four days post-injection)","EC50 (rat TRPM8 [2]; oocytes, 10 ng rat TRPM8 cRNA, 19.5° C.)",EC50 (rat TRPM8 [4])
CCNC(=O)C1CC(C)CCC1C(C)C (centres unmarked) [WS-3],–,substantially higher cooling intensity,–,–,–,–,–,–
CC12CCC(CC1)C(C)(C)O2 [eucalyptol],small peak currents,–,–,–,–,–,–,–
CC1CCC(C(C)C)C(O)C1 (centres unmarked) [menthol],large peak currents,–,more potent,partially-desensitize,specifically activate,outward rectification,29.6 µM,67 µM
